Common to all, as to assay: ≥ marks a high value that may be exact or a test limit, other limits are often not marked, values filed in µg/mL are converted to µM
In experiment [1] the test system is Staphylococcus aureus ATCC 25923.
Experiment [2] concerns Escherichia coli DC2.
For experiment [3], the system named is Enterococcus faecalis C625.
The subject of experiment [4] is Escherichia coli UB1005.
For experiment [5], the system named is Bacillus subtilis C971.
The subject of experiment [6] is Salmonella typhimurium C610.
Experiment [7] has as its system Pseudomonas aeruginosa H187.
For experiment [8], the system named is Corynebacterium xerosis C875.
Experiment [9] concerns Pseudomonas aeruginosa H188.
Experiment [10] deals with Salmonella typhimurium C587.
Experiment [11] concerns Staphylococcus aureus SAP 0017.
Experiment [12] deals with Staphylococcus epidermidis C621.
Experiment [13] relates to Staphylococcus aureus ATCC 33591.
Experiment [14] concerns Staphylococcus aureus 930918-3.
The test system of experiment [15] is Escherichia coli ATCC 25922.
Experiment [16] deals with Pseudomonas aeruginosa ATCC 27853.
Experiment [17] deals with Staphylococcus epidermidis ATCC 12228.

Our source for the MIC values is DBAASP.

The structures appear in SMILES notation. Values after ≈ are worked out from the molar mass of the structure shown. Values joined by “and” are separate entries in the source; they are usually repeats but may differ in a detail not shown here. Equal entries are not always repeated. Where only a bound is given, the exact number is not on record here.

As usually defined, the MIC is the lowest concentration that inhibits growth of the organism. A lower MIC goes with greater potency. As for `CC[C@H](C)[C@H](NC(=O)[C@H](C)NC(=O)[C@H](CCCCN)NC(=O)[C@H](CC(C)C)NC(=O)[C@H](C)NC(=O)[C@@H](NC(=O)[C@H](Cc1cnc[nH]1)NC(=O)[C@H](CC(C)C)NC(=O)[C@@H](NC(=O)[C@@H](NC(=O)[C@H](CCCCN)NC(=O)[C@@H](NC(=O)[C@H](C)NC(=O)[C@H](C)NC(=O)[C@H](CCCCN)NC(=O)[C@H](Cc1ccccc1)NC(=O)[C@@H](NC(=O)[C@H](CCCCN)NC(=O)[C@H](CC(C)C)NC(=O)[C@H](Cc1ccccc1)NC(=O)[C@H](CO)NC(=O)[C@H](CCCCN)NC(=O)[C@H](Cc1c[nH]c2ccccc12)NC(=O)[C@H](CCCCN)NC(C)=O)[C@@H](C)O)C(C)C)[C@@H](C)O)C(C)C)[C@@H](C)O)C(=O)N[C@@H](CO)C(=O)N[C@@H](CO)C(N)=O` [KWKSFLKTFKAAVKTVLHTALKAISS], the MIC in [1] turned out to be 5.51 µM (≈ 16.2 µg/mL); in [2], 1.38 µM (≈ 4.06 µg/mL); in [3] it was 6.95 µM (≈ 20.5 µg/mL); in experiment [4] it was 2.2 µM (≈ 6.49 µg/mL); in experiment [5], 0.861 µM (≈ 2.54 µg/mL); in experiment [6], 1.38 µM (≈ 4.06 µg/mL). Moreover, the MIC in [7] was 3.48 µM (≈ 10.2 µg/mL); in experiment [8], 0.689 µM (≈ 2.03 µg/mL); in experiment [9] it was 5.51 µM (≈ 16.2 µg/mL); in experiment [10], 6.95 µM (≈ 20.5 µg/mL); in experiment [11] it was 4.37 µM (≈ 12.9 µg/mL); in experiment [12], 1.38 µM (≈ 4.06 µg/mL).

For the molecule `CC[C@H](C)[C@H](NC(=O)[C@H](CCCCN)NC(=O)[C@H](CCCCN)NC(=O)[C@H](CC(C)C)NC(=O)[C@H](CCCCN)NC(=O)[C@H](CCC(=O)O)NC(=O)[C@H](CCCCN)NC(=O)[C@@H](NC(=O)[C@@H](N)CCCCN)[C@@H](C)CC)C(=O)NCC(=O)N[C@@H](CCC(N)=O)C(=O)N[C@@H](CCCCN)C(=O)N[C@H](C(=O)N[C@@H](CCC(N)=O)C(=O)NCC(=O)N[C@@H](CC(C)C)C(=O)N[C@@H](CC(C)C)C(=O)O)[C@@H](C)CC` [KIKEKLKKIGQKIQGLL], the MIC in experiment [13] and in experiment [14] was no less than 127 µM throughout.

For `CC[C@H](C)[C@H](NC(=O)[C@H](C)NC(=O)[C@H](CCCCN)NC(=O)[C@H](CC(C)C)NC(=O)[C@H](C)NC(=O)[C@@H](NC(=O)[C@H](Cc1cnc[nH]1)NC(=O)[C@H](CC(C)C)NC(=O)[C@@H](NC(=O)[C@@H](NC(=O)[C@H](CCCCN)NC(=O)[C@H](CO)NC(=O)[C@H](C)NC(=O)[C@H](CO)NC(=O)[C@H](CCCCN)NC(=O)[C@H](Cc1ccccc1)NC(=O)[C@@H](NC(=O)[C@H](CCCCN)NC(=O)[C@H](CC(C)C)NC(=O)[C@H](Cc1ccccc1)NC(=O)[C@H](CO)NC(=O)[C@H](CCCCN)NC(=O)[C@H](Cc1c[nH]c2ccccc12)NC(=O)[C@H](CCCCN)NC(C)=O)[C@@H](C)O)[C@@H](C)O)C(C)C)[C@@H](C)O)C(=O)N[C@@H](CO)C(=O)N[C@@H](CO)C(N)=O` [KWKSFLKTFKSASKTVLHTALKAISS], the MIC in experiment [1] is 5.5 µM and 8 µM; in [2] it was 0.86 µM (≈ 2.54 µg/mL); in [3], 17.5 µM (≈ 51.5 µg/mL); in experiment [15] it was 8 µM (≈ 23.6 µg/mL); in experiment [4], 0.86 µM (≈ 2.54 µg/mL); in [5] it was 0.86 µM (≈ 2.54 µg/mL). Besides, the MIC in experiment [6] is 0.688 µM (≈ 2.03 µg/mL); in [16], 8 µM (≈ 23.6 µg/mL); in experiment [7], 2.2 µM (≈ 6.49 µg/mL); in experiment [8], 0.55 µM (≈ 1.62 µg/mL); in experiment [9], 3.47 µM (≈ 10.2 µg/mL); in [10], 2.2 µM (≈ 6.49 µg/mL). Further, the MIC in [11] was found to be 4.37 µM (≈ 12.9 µg/mL); in experiment [12], 1.38 µM (≈ 4.06 µg/mL); in [17], 4 µM (≈ 11.8 µg/mL).
